Experiments:
autism = settings: in vivo; cited from earlier work
autistic children = settings: small double-blind, placebo-controlled study; cited from earlier work
[1] = test system: hyperkinetic children, children with attention deficit disorder (ADD); settings: in vivo; cited from earlier work
[2] = test system: autistic spectrum disorders; settings: in vivo; cited from earlier work
[3] = test system: pediatric patients diagnosed with ADHD combined type; assay: Open-label study of memantine in pediatric ADHD combined type: ADHD-IV-RS; format: in vivo, human; settings: for ADHD-IV-RS change from baseline, Week 4 (mean) / ADHD-IV-RS change from baseline, Week 8 (mean ± SD) / ADHD-IV-RS score, Week 4 (mean ± SD) / ADHD-IV-RS score, Week 8 (mean ± SD) / ADHD-IV-RS change from baseline, Week 4 (mean ± SD): ITT population
From the text: The Attention Deficit/Hyperactivity Disorder Rating Scale, Fourth Edition-Parent Version (ADHD-IV-RS) assesses each of the 18 individual criteria symptoms of ADHD in DSM-IV-TR™ on a severity grid (0=not present, 3=severe; overall minimum score=0, maximum score=54) (DuPaul et al., ADHD Rating Scale-IV: Checklists, Norms, and Clinical Interpretations 1998. New York: The Guilford Press). Inattention symptoms comprise the odd-numbered items, and hyperactive-impulsive symptoms are represented by the even-numbered items. The scale takes approximately 10 to 15 minutes to complete. […] It is to be completed by the patient's parent or legal guardian at Screening (part 1.1), Baseline, and from two to eight times during Visits 3 to 10, or upon study discontinuation.
(§1) The primary objective of this study was to provide preliminary safety and tolerability evaluations of memantine in pediatric patients with ADHD combined type. The secondary objectives of the study were to evaluate the pharmacokinetics of memantine in this patient population, and to provide preliminary evaluations of efficacy on effect based on a 8-week administration of memantine.
(§2) Design. This clinical trial was conducted as an open-label, single center, dose-finding outpatient study assessing memantine in pediatric patients diagnosed with ADHD combined type (DSM-IV-TR™ criteria). ADHD combined type is characterized by the presence of significant inattentive and hyperactive/impulsive symptomotology.
(§3) Patient Population. The study enrolled sixteen (16) male or female outpatients between the ages of 6 and 12 years, mean age of 8 years, diagnosed with ADHD combined type by DSM-IV-TR™ criteria based on clinical evaluation and a semi-structured interview, the Schedule for Affective Disorders and Schizophrenia for School-Age Pediatric patients-Present and Lifetime (K-SADS-PL).
(§4) Dosages. Sixteen (16) outpatients with a diagnosis of ADHD combined type received treatment with memantine for a total of 8 weeks. Patients were enrolled in to two groups of 8 patients each, Cohort 1 and Cohort 2. Dose adjustments were permitted for patients experiencing dose-limiting adverse events. For Cohort 1 patients, treatment consisted of a 4 week titration period from a starting dose of 2.4 mg/day at the start of week 0, to 4.8 mg/day at the start of week 1, to 7.2 mg/day at the start of Week 2 to a maximum dose of 10 mg/day at the start of week 3, with a maintenance dose of 10 mg/day continuing to the end of Week 8. For Cohort 2 patients, treatment consisted of a 4-week titration period from a starting dose of 4.8 mg/day at the start of Week 0, to 10 mg/day at the start of Week 1, to 14.8 mg/day at the start of Week 2, to a maximum dose of 20 mg/day at the start of Week 3, with a maintenance dose of 20 mg/day continuing to the end of Week 8.
(§5) Patients who missed 2 consecutive visits were discontinued from the study. […] The “Safety Population” consisted of all patients who took at least one dose of study medication. The “Intent-to-Treat (ITT) Population” consisted of all patients in the safety population with at least one post baseline efficacy assessment of ADHD-IV-RS or CGI-ADHD-S. ADHD-IV-RS or CGI-ADHD-S were administered 4 times per patient, once at Screening, once at baseline, once at the end of Week 4 and once at the end of Week 8. […] Those patients unable to tolerate the minimum daily dose after the Week 1 of dosing were discontinued from the study without replacement.
Efficacy parameters used for evaluation were the ADHD-IV-RS, CGI-ADHD-S, CCPT-II, Woodcock Johnson III reading and math fluency tests, and the Stroop test, described above.
The primary analysis for each efficacy parameter was based on observed cases. Only patients completing the evaluation were included in the OC analysis, missing data were not imputed. A last observation carried forward (LOCF) analysis was also performed for each efficacy assessment. […]

[4] = test system: pediatric patients diagnosed with ADHD combined type; assay: Open-label study of memantine in pediatric ADHD combined type: CGI-ADHD-S; format: in vivo, human; settings: Cohort 2, OC analysis, patients who completed the evaluation, end of 8 weeks; 100% moderately or markedly ill at baseline
Procedure: The Clinical Global Impression-ADHD-Severity (CGI-S) is a 7-point scale (1 [not ill] to 7 [extremely ill]) to be assessed by the Investigator at Screening (part 1.1), Baseline, and from two to eight times during Visits 3 to 10, or upon study discontinuation.
as §2, §3
Dosages. Sixteen (16) outpatients with a diagnosis of ADHD combined type received treatment with memantine for a total of 8 weeks. Patients were enrolled in to two groups of 8 patients each, Cohort 1 and Cohort 2. Dose adjustments were permitted for patients experiencing dose-limiting adverse events. […]

[5] = test system: pediatric patients diagnosed with ADHD combined type; assay: Open-label ADHD study: overall efficacy, tolerability and patient disposition; format: in vivo, human
Procedure: as §1, §2, §4, §5
Adverse events. Adverse event (AE) monitoring was performed at all study visits except Screening, including early termination. An AE is any untoward medical occurrence in a patient or clinical investigation subject administered a pharmaceutical product. It is not necessary that the AE have a causal relationship to treatment with the product.
An AE therefore is any unfavorable and unintended sign (for example, a clinically significant abnormal laboratory finding) symptom, or disease temporally associated with the use of study medication, whether or not considered related to study medication. […] An AE occurring during the open-label treatment period is counted as a treatment-emergent AE (TEAE) if it is not present prior to the first dose of study medication or if it is present prior to the first dose of study medication but increases in severity following the first dose of study medication.
The number (percentage) of patients with TEAEs were tabulated by body system and preferred term. Within a specific category (i.e., a specific body system or preferred term), the patient was counted only once if the patient had more than one event reported. […]

[6] = cited from earlier work
[7] = test system: cytochrome P-450 (CYP 450) isoenzymes; settings: in vitro; cited from earlier work
NMDA receptor = settings: uncompetitive antagonist; cited from earlier work
[8] = test system: patients with moderate to severe dementia of the Alzheimer's type; settings: cited from earlier work
[9] = test system: patients with neurodegenerative disorders; settings: cited from earlier work
[10] = aqueous media; cited from earlier work
[11] = Cohort 1 (up to 10 mg/day), LOCF
[12] = Cohort 2 (up to 20 mg/day), LOCF

In the case of “secretin: a synthetic form of the natural human hormone secretin developed by RepliGen for the potential treatment of autism”, the “Autistic behavior compared to placebo” value (autism) is listed as “did not demonstrate significant improvement”.

In the case of NC12CC3CC(CC(C3)C1)C2 [amantadine, 1-aminoadamantane], the “Measures of hyperactivity and irritability” value (autistic children) is given as “statistically significant improvement” and the “Effects in hyperkinetic children and children with ADD” value [1] is given as “favorable effects”.

For Cc1nc2n(c(=O)c1CCN1CCC(c3noc4cc(F)ccc34)CC1)CCCC2 [risperidone], the “Adverse effects associated with treatment” value [2] is given as “weight gain, increased appetite, fatigue, drowsiness, tremor and drooling”.

For CC12CC3CC(C)(C1)CC(N)(C3)C2.Cl [memantine, 1-amino-3,5-dimethyladamantane hydrochloride], the “ADHD-IV-RS change from baseline, Week 4 (mean)” value [3, 11] was −3.3, the “ADHD-IV-RS change from baseline, Week 8 (mean ± SD)” value [3, 11] was −3.8 ± 2.31 and the “ADHD-IV-RS score, Week 4 (mean ± SD)” value [3, 11] was 42.8 ± 8.33. The “ADHD-IV-RS score, Week 8 (mean ± SD)” value [3, 11] was 40.9 ± 8.53, the “ADHD-IV-RS change from baseline, Week 4 (mean ± SD)” value ([3]; Cohort 1 (up to 10 mg/day), OC) was −3.5 ± 2.38 and the “ADHD-IV-RS score, Week 4 (mean ± SD)” value ([3]; Cohort 1 (up to 10 mg/day), OC) was 42.8 ± 8.33. For the same compound, the “ADHD-IV-RS change from baseline, Week 4 (mean)” value [3, 12] was −10.9, the “ADHD-IV-RS change from baseline, Week 8 (mean ± SD)” value [3, 12] was −9 ± 10.00 and the “ADHD-IV-RS score, Week 4 (mean ± SD)” value [3, 12] was 31.3 ± 13.05. The “ADHD-IV-RS score, Week 8 (mean ± SD)” value [3, 12] was 32.9 ± 12.76, the “ADHD-IV-RS change from baseline, Week 4 (mean ± SD)” value ([3]; Cohort 2 (up to 20 mg/day), OC) was −11. ± 59.65 and the “ADHD-IV-RS change from baseline, Week 8 (mean ± SD)” value ([3]; Cohort 2 (up to 20 mg/day), OC) was −16.5 ± 8.19. For the same compound, the “ADHD-IV-RS score, Week 4 (mean ± SD)” value ([3]; Cohort 2 (up to 20 mg/day), OC) was 29.5 ± 13.32, the “ADHD-IV-RS score, Week 8 (mean ± SD)” value ([3]; Cohort 2 (up to 20 mg/day), OC) was 22.3 ± 8.66 and the “Effect on ADHD-IV-RS (in words)” value ([3]; Cohort 2, end of 8 weeks, OC analysis) was “showed improvement”. The “CGI-ADHD-S: patients considered borderline or markedly ill” value [4] was 75%, the “Tolerability in patients with ADHD” value ([5]; 8-week open-label treatment, up to 10 or 20 mg/day) was “well tolerated” and the “Patients discontinued for insufficient therapeutic efficacy” value ([5]; Cohort 1, 8 patients, all discontinued prior to week 8) was 7. For the same compound, the “Behavior and symptomology of combined type ADHD (in words)” value ([5]; Cohort 2 (up to 20 mg/day)) was “demonstrated improvements”, the “Patients discontinued for insufficient therapeutic efficacy” value ([5]; Cohort 2, 8 patients, 4 completed the study) was 3 and the “Efficacy after 8 weeks of treatment (in words)” value ([5]; the 25% of patients completing the study) was “improvement in two efficacy parameters was observed”. For the same compound, the “Bioavailability after an oral dose” value ([6]; adult humans, oral) was 100%, the CSF/serum ratio ([6]; adult humans) was 0.52 and the Metabolism ([6]; adult humans) was “minimal”. The “Effect of food, sex or age on pharmacokinetic profile” value ([6]; in vivo) was “not affected”, the “Inhibition of CYP 450 isoenzymes” value [7] was “does not inhibit” and the “Affinity for the NMDA receptor” value (NMDA receptor) was “low to moderate”. For the same compound, the “Cognitive, functional and global assessments” value ([8]; 2 US studies, outpatients ages 50-93, moderate to severe Alzheimer's dementia) was “significant improvement”, the “Care dependency and global change relative to placebo” value ([8]; study 9403, Latvian nursing home patients, Alzheimer's disease or vascular dementia (MMSE<10)) was “significant improvement” and the “Safety and tolerability profile” value ([9]; 2297 patients in 27 clinical trials) was “acceptable”. The “Most common adverse events” value ([9]; clinical trials, relatively rare) was “dizziness, headache, constipation, and confusion” and the Solubility [10] was “highly soluble”.
